Assay results: patent publication EP0768881B1, “ANTI-HIV TRIPLE COMBINATION COMPRISING ZIDOVUDINE, LAMIVUDINE AND LOVIRIDE” (JANSSEN PHARMACEUTICA N.V., priority 1994, dated 1996)

How the values were obtained:
CD4 cells = details: patients receiving established anti-HIV drugs alone; count then decreases again; cited from earlier work
[1] = Pharmacokinetic interaction between components in open case-control study; format: in vivo, HIV-1 infected patients; details: between lamivudine and zidovudine or loviride
Method: The triple combination of zidovudine (200 mg t.i.d.), lamivudine (300 mg b.i.d.) and loviride (100 mg t.i.d.) versus the double combination of zidovudine (200 mg t.i.d.) and loviride (100 mg t.i.d.) was assessed in an open case-control study. Twenty HIV-1 infected patients with a positive p24 antigen test at baseline were included. Both combinations were well tolerated. Serious drug-induced safety-related abnormalities were not observed. […] The median CD4 count (% versus baseline) during therapy in the group of patients treated with the triple combination were compared with the median CD4 count in the group of patients treated with the double combination in Table 1. The median p24 antigen count (% versus baseline) of the group of patients treated with the triple combination were compared with the median p24 antigen count of the group of patients treated with double combination in Table 2.

| SMILES | CD4 count increase (CD4 cells) | pharmacokinetic interaction [1] |
| --- | --- | --- |
| Nc1ccn([C@H]2CS[C@@H](CO)O2)c(=O)n1 [lamivudine, (-)-2',3'-dideoxy-3'-thiacytidine] | about 20% | No clinically relevant pharmacokinetic interaction |
| Cc1cn([C@H]2C[C@H](N=[N+]=[N-])[C@@H](CO)O2)c(=O)[nH]c1=O [zidovudine, 3'-azido-3'-deoxythymidine] | about 20% |  |
